In experiment [1] the target is T1, chymotrypsin-like activity of the purified rabbit 20S proteasome (Oryctolagus cuniculus, UniProt G1T4Q9).
T1 sequence (G1T4Q9 1-263): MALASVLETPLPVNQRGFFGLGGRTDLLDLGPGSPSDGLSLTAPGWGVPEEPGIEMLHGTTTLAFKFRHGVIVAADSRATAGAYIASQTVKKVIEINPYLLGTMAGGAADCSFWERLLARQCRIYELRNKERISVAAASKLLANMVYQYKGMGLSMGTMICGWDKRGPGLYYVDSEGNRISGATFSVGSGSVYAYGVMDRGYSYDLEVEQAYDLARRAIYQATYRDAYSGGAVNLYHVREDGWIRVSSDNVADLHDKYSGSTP
Nature of the experiment: 20S proteasome inhibition assay, fluorogenic substrate Suc-Leu-Leu-Val-Tyr-AMC.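 Note: enzyme and 20 µM substrate incubated 1 h at 37 °C in Tris-HCl buffer pH 7.6, fluorogenic read-out, inhibition calculated against vehicle control.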 It counts as biochemical.
Description: 20S Proteasome Inhibition Assay
In our work, we used chymotrypsin-like substrate Suc-Leu-Leu-Val-Tyr-AMC to test the proteasome inhibition activity of the synthesized compounds.
The assay was conducted by using a fluorogenic peptide as substrate to test synthesized compounds for inhibitory activity against the chymotrypsin-like activity of the purified rabbit 20S proteasome. Briefly, 70 ng of purified 20S proteasome was incubated with 20 μM Suc-Leu-Leu-Val-Tyr-AMC for 1 hour at 37° C. in 100 μl of assay buffer (50 mM Tris-HCl, pH 7.6) with or without inhibitors. […] The inhibitory activity of the compounds was calculated based on vehicle control.

Experiment [2] relates to human tumor cell lines (breast, pancreatic and ovarian). Nature of the experiment: Selective inhibition of human tumor cell lines over normal cells. It counts as cell-based. To be noted: three human tumor cell lines (breast, pancreatic, ovarian) over normal cells.
A further experiment addresses T2, CT-L (Homo sapiens, UniProt P28074).
T2 construct: endogenous in cells
T2 sequence (P28074 60-263): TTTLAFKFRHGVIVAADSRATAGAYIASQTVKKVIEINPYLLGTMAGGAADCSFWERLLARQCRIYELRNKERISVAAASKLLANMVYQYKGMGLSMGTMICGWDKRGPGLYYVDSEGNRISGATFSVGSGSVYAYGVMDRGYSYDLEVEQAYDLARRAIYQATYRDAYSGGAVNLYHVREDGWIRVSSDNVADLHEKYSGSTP
The experiment is described as follows: Inhibition of CT-L in cell culture. It counts as cell-based. To be noted: read-out: IC50 (μM)* In Cell culture against CT-L.

Setting [3] is: 30 μM, runs M-1096, M-1098, M-1099.

A word on the inhibition: it is the relative decrease from the control value, in per cent. Low values mean a response near the control, high ones a response far below the control. Broadly, the pIC50 is the IC50 on a negative log10 scale, so that one unit is a factor of ten. As usually defined, the IC50 is the concentration that inhibits the measured activity by half.

pIC50: −log10 of the molar value. Several values for one entry are separate records, joined by “and”; a condition that tells them apart may be missing. Equal values may be shown once. Read-outs that look alike come from different tables or passages of the source.

Take `O=C1C(Cl)=C(Nc2ccc(S(=O)(=O)Nc3ccccn3)cc2)C(=O)c2ccccc21` [PI-083, reference compound]: in experiment [1] (setting [3]), the “Chymotrypsin-like Activity Inhibition at 30 μM” value was 86% and 83%; the inhibition at 30 µM stood at 87%. In experiment [1] (individual determinations (runs M-1096, M-1098, M-1099, AK or dated), read-out: Chymotrypsin-like Activity IC50), the pIC50 is 5.68 and 5.85 and 5.60 and 6.05. In experiment [1] (mean of the individual determinations, read-out: Chymotrypsin-like Activity IC50 (μM), mean ± spread (n)), the IC50 is 1.73 µM. In experiment [2], the “selective inhibition of tumor cell lines over normal cells” value is given as “selective inhibition”. Further, at CT-L, the IC50 is 4.3 µM and 3.7 µM.

The values are drawn from patent US8466157B2, “Proteasome inhibitors having chymotrypsin-like activity” (University of South Florida, priority 2009, dated 2013).
